Measured values: patent publication US20160220567A1, “COMPOSITION FOR TREATING OR PREVENTING BONE DISEASES, COMPRISING HALOFUGINONE AS ACTIVE INGREDIENT” (THE CATHOLIC UNIVERSITY OF KOREA INDUSTRY-ACADEMIC …, priority 2013, published 2016)

What was measured:
[1] = test system: joint tissue of mouse with arthritis; experiment: Degree of joint destruction by immunohistochemical staining of CIA mouse joints; format: in vivo; settings: CIA mice, according to the concentration of treatment, FIG. 1B
Experimental: (§1) For the construction of a mouse model with collagen-induced arthritis (hereinafter, referred to as “CIA”), a 6-week old male DBA/1J mouse was subjected to primary immunization by intradermal injection after mixing the bovine type II collagen (hereinafter, referred to as “CII”) and complete Freud's adjuvant (CFA) in an amount of 100 μL, respectively. After a week thereafter, halofuginone was injected intraperitoneally at 3 day intervals at a concentration of 100 μg/kg and 500 μg/kg, respectively (9 weeks).
To examine the therapeutic effect of treating halofuginone of the present invention on arthritis, the mouse prepared in Example <1-1> (the mouse with arthritis injected with halofuginone) was sacrificed and the degree of joint destruction was analyzed via immunohistochemical staining method. The group treated with a solution in which DMSO was diluted in saline was used as the control group.
The immunohistochemical staining method was performed by the process shown below. The joints of the mice group used above were collected, fixed with 10% neutral buffered formalin, the bones were decalcified with EDTA and embedded in paraffin, the joint tissue was prepared into 7 μm-thick slices and attached to slides. […] The immunohistochemical staining method was used in the joints of mice and analyzed under an optical microscope. […]

IL-17 and IL-6 = experiment: Inflammatory cytokines IL-17 and IL-6 in joint tissue staining / sera ELISA of CIA mice; format: in vivo, mouse; settings: FIG. 1C
Experimental: as §1

[2] = test system: Th17, Th1 and Th2 cells from splenocytes; experiment: Differentiation of Th17-, Th1-, and Th2 cells from mouse splenocytes by halofuginone treatment; format: cell-based
Experimental: Splenocytes were obtained from mice, that is, the spleens removed from the mice and the spleen tissues were thinly ground using a tearing slide and the red blood cells (RBC) in the splenocytes were removed with the RBC lysis solution. Then, PBS buffer solution was added thereto, and the mixture was centrifuged, and washed to obtain splenocytes. Then, the singe cells (1 ? 10^6) isolated from the spleens were aliquoted into a 24-well plate coated with anti-CD3 antibody (1 μg/mL) were treated under the condition of capable of stimulating Th17 cells (anti-CD28 antibody (1 μg/mL), TGF-β (2 ng/ mL), IL-6 (20 ng/mL), anti-IL-4 (10 μg/mL), and anti-IFN-γ (10 μg/mL); the condition of capable of stimulating Th1 cells (anti-CD28 antibody (1 μg/mL), IL-12 (10 ng/mL), and anti-IL-4 (10 μg/mL)); or the condition of capable of stimulating Th2 cells (anti-CD28 antibody (1 μg/mL), IL-4 (10 ng/mL), and anti-IFN-γ (10 μg/mL)); and the cells were cultured for 3 days, and in particular, cultured after treating the cells with halofuginone at respective concentration and cultured. Specifically, DMSO treatment was used for the control group.

[3] = test system: osteoclasts from murine bone marrow cells; experiment: Bone resorption potential by osteoclasts on Dentine slice, murine bone marrow cells; format: cell-based, mouse; settings: M-CSF, RANKL, 21 days, FIG. 5B
Experimental: (§2) To examine the effect of halofuginone on the bone resorption potential by osteoclasts, murine bone marrow cells were cultured in Dentine slice, and the cultured cells were stimulated with M-CSF, RANKL, and halofuginone, and cultured for 21 additional days. Then, the cells were removed using 5% sodium hypochlorite solution, subjected to Hematoxylin staining, and the bone resorption lacunae formed by the bone resorption of osteoclasts were photographed.

[4] = test system: osteoclasts from mononuclear cells of human peripheral blood; experiment: Bone resorption potential by osteoclasts in human cells; format: cell-based; settings: FIG. 6D
Experimental: as §2
The effect of halofuginone on the bone resorption potential by osteoclasts was observed using the mononuclear cells of human peripheral blood, in the same manner as described in Example <2-7>.

Rcan3 and Sox6 = experiment: Expression of Rcan3 and Sox6 in joint tissue of CII-immunized DBA/1J mice by immunohistochemical staining; format: in vivo, mouse; settings: 500 μg/kg intraperitoneally, 50 days, vs untreated group, FIG. 7
Source text: Furthermore, to examine whether the halofuginone compound of the present invention can promote the differentiation and the activity of osteoblasts, the present inventors performed the following experiment for the purpose of confirming the effect of the halofuginone compound on the expression and the activity of Rcan3 and Sox6, which are factors associated with the differentiation of osteoblasts. Specifically, the DBA/1J mice were subjected to the primary immunization by intradermally injecting bovine type II collagen (hereinafter, “CII”) in an amount of 100 μL, and one week thereafter, injected intraperitoneally with halofuginone (500 μg/kg). Fifty days thereafter, the mice were sacrificed, and the expression levels of Rcan3 and Sox6 in the joint tissue of the mice were confirmed via immunohistochemical staining method. The group of mice not treated with halofuginone was used as the control group.
The immunohistochemical staining method was performed as follows. The joints of the mice group used above were collected, fixed with 10% neutral buffered formalin, the bones were decalcified with Calci-Clear Rapid bone decalcifier and embedded in paraffin, the joint tissue was prepared into 7 μm-thick slices and attached to slides. […]

[5] = condition of differentiating Th17 cells, 3 days, vs DMSO, FIG. 3A

O=C(C[C@H]1NCCC[C@@H]1O)Cn1cnc2cc(Br)c(Cl)cc2c1=O (racemic) [halofuginone]
joint destruction [1]: significantly decrease | level of inflammatory cytokine IL-6 (IL-17 and IL-6): significantly decrease | level of inflammatory cytokine IL-17 (IL-17 and IL-6): significantly decrease | Th17 cells [2, 5]: inhibited | Treg cells [2, 5]: increased | production of IL-4 ([2]; conditions of differentiating Th1 cells, IFN-gamma, and Th2 cells): did not affect | bone resorption potential [3]: significantly reduced | bone resorption potential [4]: significantly reduced | expression of Rcan3 (Rcan3 and Sox6): significant increase | expression of Sox6 (Rcan3 and Sox6): significant increase
